Laboratory results taken from the supplement of paper PMC11061612.

What was measured:
[1] = test system: NCI-H841 (Small Cell Lung Carcinoma); assay: Bliss excess, mean over the matrix (fraction); higher = more synergy
Procedure, shortened: (§1)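 After 24 hours at 37°C and 5% CO2 in 1536-well plates, cells in DMEM/F12 or RPMI plus 10% FBS received two-drug dose matrices for 72 hours. Viability came from CellTiter-Glo 2.0 luminescence and was scaled as inhibition, anchored at 0 by vehicle wells and at 1 by blank wells. Combination Emax is taken as the second-highest inhibition in the matrix, and Bliss excess as the observed combination effect less EA + EB − EA·EB, with EA and EB the single-agent effects.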

MKN1 (Gastric Carcinoma) [2] = assay: as above
Procedure, shortened: as §1

[3] = test system: NCI-H1651 (Lung Adenocarcinoma); assay: combination Emax (second highest fraction inhibited in the dose matrix, 72 h); higher = more inhibition; extreme values may be limits of the assay
Procedure, shortened: as §1

769-P (Kidney Carcinoma) = assay: as above
Procedure, shortened: as §1

[4] = test system: 22RV1 (Prostate Carcinoma); assay: as above
Procedure, shortened: as §1

IM-9 (Non-Cancerous) = assay: as above
Procedure, shortened: as §1

WM1552C (Melanoma) = assay: as above
Procedure, shortened: as §1

[5] = test system: NCI-H841 (Small Cell Lung Carcinoma); assay: as above
Procedure, shortened: as §1

MKN1 (Gastric Carcinoma) [6] = assay: as above
Procedure, shortened: as §1

KP-N-YN (Neuroblastoma) = assay: as above
Procedure, shortened: as §1
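For Bliss excess, mean over the matrix in this document: after 72 h of two-drug dosing.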

Row | SMILES | Bliss excess [1] | Bliss excess (MKN1 (Gastric Carcinoma) [2]) | combination Emax [3] | combination Emax (769-P (Kidney Carcinoma)) | combination Emax [4] | combination Emax (IM-9 (Non-Cancerous)) | combination Emax (WM1552C (Melanoma)) | combination Emax [5] | combination Emax (MKN1 (Gastric Carcinoma) [6]) | combination Emax (KP-N-YN (Neuroblastoma))
1 | C=CCn1c(=O)c2cnc(Nc3ccc(N4CCN(C)CC4)cc3)nc2n1-c1cccc(C(C)(C)O)n1 [AZD1775] + CCc1c2c(nc3ccc(O)cc13)-c1cc3c(c(=O)n1C2)COC(=O)[C@]3(O)CC [SN-38] (first compound max 1 µM, partner max 0.3 µM) | -0.0421 | -0.0056 | 0.86 | 0.881 | 0.732 | 1 | 0.611 | 0.66 | 0.869 | –
2 | C=CCn1c(=O)c2cnc(Nc3ccc(N4CCN(C)CC4)cc3)nc2n1-c1cccc(C(C)(C)O)n1 [AZD1775] + Nc1ccn([C@@H]2O[C@H](CO)[C@@H](O)C2(F)F)c(=O)n1 [Gemcitabine] (first compound max 1 µM, partner max 0.3 µM) | 0.0425 | 0.0171 | 0.762 | 0.868 | 0.744 | 1 | 0.72 | 0.726 | 0.927 | –
3 | CN(CCO)CC[C@H](CSc1ccccc1)Nc1ccc(S(=O)(=O)NC(=O)c2ccc(N3CCC([C@@H](O)c4ccccc4-c4ccc(Cl)cc4)CC3)cc2)cc1S(=O)(=O)C(F)(F)F [AZD4320] + CS(=O)(=O)CCNCc1ccc(-c2ccc3ncnc(Nc4ccc(OCc5cccc(F)c5)c(Cl)c4)c3c2)o1 [Lapatinib] (first compound max 1 µM, 7x7, partner max 10 µM) | -0.0037 | 0.046 | 0.396 | 0.989 | 0.335 | 0.974 | 0.571 | 0.237 | 0.888 | –
4 | Cc1c2c(nn1C)CSCc1cc(n(C)n1)CSc1cc(c3ccccc3c1)OCCCc1c(C(=O)O)n(C)c3c-2c(Cl)ccc13 [AZD5991] + CC(=O)O[C@H]1C(=O)[C@@]2(C)[C@H]([C@H](OC(=O)c3ccccc3)[C@]3(O)C[C@H](OC(=O)[C@H](O)[C@@H](NC(=O)c4ccccc4)c4ccccc4)C(C)=C1C3(C)C)[C@]1(OC(C)=O)CO[C@@H]1C[C@@H]2O [Paclitaxel] (first compound max 1 µM, 7x7, partner max 3 µM) | 0.0663 | -0.103 | 0.912 | 0.789 | 0.912 | 1 | 0.989 | 0.973 | 0.824 | 0.608
5 | Cc1c2c(nn1C)CSCc1cc(n(C)n1)CSc1cc(c3ccccc3c1)OCCCc1c(C(=O)O)n(C)c3c-2c(Cl)ccc13 [AZD5991] + CS(=O)(=O)CCNCc1ccc(-c2ccc3ncnc(Nc4ccc(OCc5cccc(F)c5)c(Cl)c4)c3c2)o1 [Lapatinib] (first compound max 1 µM, 7x7, partner max 10 µM) | -0.0161 | -0.0016 | 0.307 | 0.917 | 0.55 | 0.93 | 0.693 | 0.3 | 0.53 | 0.374
6 | Cc1c2c(nn1C)CSCc1cc(n(C)n1)CSc1cc(c3ccccc3c1)OCCCc1c(C(=O)O)n(C)c3c-2c(Cl)ccc13 [AZD5991] + Nc1ccn([C@@H]2O[C@H](CO)[C@@H](O)C2(F)F)c(=O)n1 [Gemcitabine] (first compound max 1 µM, 7x7, partner max 0.3 µM) | 0.0135 | -0.0205 | 0.486 | 0.701 | 0.886 | 1 | 0.899 | 0.567 | 0.624 | –
7 | C[C@@H]1COCCN1c1cc(C2([S@](C)(=N)=O)CC2)nc(-c2ccnc3[nH]ccc23)n1 [AZD6738] + C1CC(C1)(C(=O)[O-])C(=O)[O-].N.N.[Pt+2] [Carboplatin] (first compound max 10 µM, 7x7, partner max 10 µM) | -0.0587 | -0.0424 | 0.641 | 0.878 | 0.553 | 0.966 | 0.564 | 0.503 | 0.85 | –
8 | C[C@@H]1COCCN1c1cc(C2([S@](C)(=N)=O)CC2)nc(-c2ccnc3[nH]ccc23)n1 [AZD6738] + Nc1ccn([C@@H]2O[C@H](CO)[C@@H](O)C2(F)F)c(=O)n1 [Gemcitabine] (first compound max 10 µM, 7x7, partner max 0.3 µM) | 0.0975 | 0.0369 | 0.747 | 0.865 | 0.754 | 1 | 0.868 | 0.829 | 0.951 | –
9 | C[C@@H](Nc1cc(F)cc(F)c1)c1cc(C(=O)N(C)C)cc2c(=O)cc(N3CCOCC3)oc12 [AZD8186] + C1CN(CCC1(C(=O)N[C@@H](CCO)C2=CC=C(C=C2)Cl)N)C3=NC=NC4=C3C=CN4 [AZD5363] (first compound max 10 µM, 7x7, partner max 10 µM) | -0.025 | -0.0304 | 0.112 | 0.338 | 0.546 | 0.57 | 0.339 | 0.293 | 0.491 | 0.257
10 | C[C@@H](Nc1cc(F)cc(F)c1)c1cc(C(=O)N(C)C)cc2c(=O)cc(N3CCOCC3)oc12 [AZD8186] + CC(=O)c1c(C)c2cnc(Nc3ccc(N4CCNCC4)cn3)nc2n(C2CCCC2)c1=O [Palbociclib] (first compound max 10 µM, 7x7, partner max 10 µM) | 0.0118 | 0.0017 | 0.17 | 0.755 | 0.563 | 0.682 | 0.352 | 0.266 | 0.674 | 0.433
11 | C[C@@H](Oc1cc(-c2cnn(C3CCNCC3)c2)cnc1N)c1c(Cl)ccc(F)c1Cl [Crizotinib] + CC1=C(C(=CC=C1)Cl)NC(=O)C2=CN=C(S2)NC3=CC(=NC(=N3)C)N4CCN(CC4)CCO [Dasatinib] (first compound max 10 µM, 7x7, partner max 2 µM) | -0.0089 | 0.0586 | 0.29 | 0.961 | 0.468 | 0.974 | 0.959 | 0.301 | 0.866 | 0.71
12 | C[C@@H](Oc1cc(-c2cnn(C3CCNCC3)c2)cnc1N)c1c(Cl)ccc(F)c1Cl [Crizotinib] + Cn1cnc2c(F)c(Nc3ccc(Br)cc3Cl)c(C(=O)NOCCO)cc21 [Selumetinib] (first compound max 10 µM, 7x7, partner max 10 µM) | -0.0528 | 0.0001 | 0.0815 | 0.875 | 0.59 | 1 | 0.864 | 0.202 | 0.561 | 0.607
13 | CS(=O)(=O)CCNCc1ccc(-c2ccc3ncnc(Nc4ccc(OCc5cccc(F)c5)c(Cl)c4)c3c2)o1 [Lapatinib] + Cn1cnc2c(F)c(Nc3ccc(Br)cc3Cl)c(C(=O)NOCCO)cc21 [Selumetinib] (first compound max 10 µM, 7x7, partner max 10 µM) | 0.0251 | -0.002 | 0.151 | 0.945 | 0.464 | 0.994 | 0.444 | 0.303 | 0.596 | 0.409
14 | CS(=O)(=O)CCNCc1ccc(-c2ccc3ncnc(Nc4ccc(OCc5cccc(F)c5)c(Cl)c4)c3c2)o1 [Lapatinib] + NC1(c2ccc(-c3nc4ccn5c(=O)[nH]nc5c4cc3-c3ccccc3)cc2)CCC1 [MK-2206] (first compound max 10 µM, 7x7, partner max 10 µM) | -0.0246 | 0.0099 | 0.442 | 0.978 | 0.835 | 0.964 | 0.767 | 0.17 | 0.925 | 0.922
15 | O=C(c1cc(Cc2n[nH]c(=O)c3ccccc23)ccc1F)N1CCN(C(=O)C2CC2)CC1 [Olaparib] + CC1(C)CCC(CN2CCN(c3ccc(C(=O)NS(=O)(=O)c4ccc(NCC5CCOCC5)c([N+](=O)[O-])c4)c(Oc4cnc5[nH]ccc5c4)c3)CC2)=C(c2ccc(Cl)cc2)C1 [Venetoclax] (first compound max 10 µM, 7x7, partner max 1 µM) | -0.057 | -0.0437 | 0.235 | 0.284 | 0.251 | 0.835 | 0.319 | 0.0548 | 0.122 | 0.728
16 | O=C(c1cc(Cc2n[nH]c(=O)c3ccccc23)ccc1F)N1CCN(C(=O)C2CC2)CC1 [Olaparib] + CN(CC[C@H](CSC1=CC=CC=C1)NC2=C(C=C(C=C2)S(=O)(=O)NC(=O)C3=CC=C(C=C3)N4CCC(CC4)[C@H](C5=CC=CC=C5C6=CC=C(C=C6)Cl)O)S(=O)(=O)C(F)(F)F)CCO [AZD4320] (first compound max 10 µM, 7x7, partner max 1 µM) | -0.0526 | -0.0238 | 0.299 | 0.678 | 0.183 | 0.924 | 0.484 | 0.0513 | 0.165 | 0.968
17 | O=C(c1cc(Cc2n[nH]c(=O)c3ccccc23)ccc1F)N1CCN(C(=O)C2CC2)CC1 [Olaparib] + COc1nnc2ccc(N3CCC(c4ccc(OCCN5CCN(C)C(=O)[C@H]5C)cc4)CC3)nn12 [AZD5153] (first compound max 10 µM, 7x7, partner max 1 µM) | -0.0593 | -0.0577 | 0.367 | 0.709 | 0.546 | 0.752 | 0.376 | 0.236 | 0.631 | 0.521
18 | O=C(c1cc(Cc2n[nH]c(=O)c3ccccc23)ccc1F)N1CCN(C(=O)C2CC2)CC1 [Olaparib] + Cc1c2c(nn1C)CSCc1cc(n(C)n1)CSc1cc(c3ccccc3c1)OCCCc1c(C(=O)O)n(C)c3c-2c(Cl)ccc13 [AZD5991] (first compound max 10 µM, 7x7, partner max 1 µM) | -0.0522 | -0.0332 | 0.293 | 0.261 | 0.519 | 0.903 | 0.856 | 0.126 | 0.118 | 0.335
19 | Cc1nc(-c2cn3c(n2)-c2ccc(-c4cnn(C(C)(C)C(N)=O)c4)cc2OCC3)n(C(C)C)n1 [Taselisib] + O=C(Nc1ccc2[nH]nc(-c3ccncc3)c2c1)[C@@H]1CCN(CC(=O)N2CCN(c3ccc(-c4ncccn4)cc3)CC2)C1 [SCH772984] (first compound max 10 µM, 7x7, partner max 5 µM) | 0.0606 | 0.0698 | 0.24 | 0.809 | 0.702 | 0.851 | 0.813 | 0.439 | 0.838 | 0.553
